Results reported in ChEMBL document CHEMBL4828715, “Discovery, Structure-Activity Relationships, and In Vivo Evaluation of Novel Aryl Amides as Brain Penetrant Adaptor Protein 2-Associated Kinase 1 (AAK1) Inhibitors for the Treatment of Neuropathic Pain” (J Med Chem, 2021).
Calls of active or inactive are those of the source. The calls are words filed in the database; no cut-off is given here.

Columns and labels:
[1] = Permeability of the compound across basolateral to apical membrane in human Caco-2 cells incubated for 2 hrs by LC-MS/MS analysis; type: ADME, cell-based; details: Caco-2, read-out: permeability
[2] = Permeability of the compound across apical to basolateral membrane in human Caco-2 cells incubated for 2 hrs by LC-MS/MS analysis
[3] = target: T1, AP2-associated protein kinase 1 (Homo sapiens, UniProt Q2M2I8); experiment: Inhibition of recombinant GST-Xa-tagged human AAK1 (30 to 330 residues) using 5-FAM-labelled Alla-KEEQSQITSQVTGQIGWR-NH2 peptide as substrate incubated for 3 hrs in presence of ATP by electrophoretic analysis
T1 sequence (Q2M2I8 whole entry, the tested form may be a part): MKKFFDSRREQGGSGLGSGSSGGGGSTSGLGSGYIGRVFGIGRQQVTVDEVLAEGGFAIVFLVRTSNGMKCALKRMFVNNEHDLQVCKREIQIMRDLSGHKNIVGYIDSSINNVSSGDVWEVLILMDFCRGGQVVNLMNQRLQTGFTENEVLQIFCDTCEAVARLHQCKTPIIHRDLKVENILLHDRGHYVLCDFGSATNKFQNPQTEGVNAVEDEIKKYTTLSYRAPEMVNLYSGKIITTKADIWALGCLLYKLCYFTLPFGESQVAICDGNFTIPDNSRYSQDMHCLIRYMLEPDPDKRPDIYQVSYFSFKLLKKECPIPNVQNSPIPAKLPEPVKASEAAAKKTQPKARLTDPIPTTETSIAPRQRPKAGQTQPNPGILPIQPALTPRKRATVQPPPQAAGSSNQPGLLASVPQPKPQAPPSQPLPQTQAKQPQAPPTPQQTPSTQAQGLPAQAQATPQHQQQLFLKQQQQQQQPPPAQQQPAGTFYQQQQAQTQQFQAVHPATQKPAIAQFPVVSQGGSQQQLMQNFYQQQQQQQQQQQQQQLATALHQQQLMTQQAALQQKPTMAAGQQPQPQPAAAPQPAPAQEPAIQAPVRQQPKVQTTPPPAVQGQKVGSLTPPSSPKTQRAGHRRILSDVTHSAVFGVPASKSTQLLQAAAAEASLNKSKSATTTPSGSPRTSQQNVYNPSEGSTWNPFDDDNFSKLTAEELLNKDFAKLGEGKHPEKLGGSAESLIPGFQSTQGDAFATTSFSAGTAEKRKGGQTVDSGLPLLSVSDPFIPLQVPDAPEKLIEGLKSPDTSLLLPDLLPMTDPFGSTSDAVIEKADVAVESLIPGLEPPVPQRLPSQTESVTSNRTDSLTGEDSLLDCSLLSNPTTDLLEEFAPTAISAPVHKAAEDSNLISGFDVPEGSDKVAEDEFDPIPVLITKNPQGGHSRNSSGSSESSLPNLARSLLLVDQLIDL

[4] = Metabolic stability in human liver microsomes assessed as parent compound remaining at 0.5 uM incubated for 10 mins in presence of NADPH by LC-MS/MS analysis; type: ADME, Microsome; details: read-out: Stability
[5] = Metabolic stability in rat liver microsomes assessed as parent compound remaining at 0.5 uM incubated for 10 mins in presence of NADPH by LC-MS/MS analysis; type: ADME, Microsome; details: read-out: Stability
[6] = Metabolic stability in mouse liver microsomes assessed as parent compound remaining at 0.5 uM incubated for 10 mins in presence of NADPH by LC-MS/MS analysis; type: ADME, Microsome; details: read-out: Stability
[7] = target: T1, AP2-associated protein kinase 1; experiment: Inhibition of human AAK1 expressed in HEK293 cells assessed as suppression of AP2 phosphorylation measured after 3 hrs by Western blot analysis; type: cell-based
[8] = Permeability of the compound at pH 5.5 incubated for 4 hrs by PAMPA-based UV spectrophotometry; type: ADME; details: read-out: permeability
[9] = Permeability of the compound at pH 7.4 incubated for 4 hrs by PAMPA-based UV spectrophotometry; type: ADME; details: PAMPA, pH 7.4, read-out: permeability
[10] = Protein binding in human plasma assessed as unbound fraction at 10 uM measured after 5 hrs by equilibrium dialysis method
[11] = Protein binding in rat plasma assessed as unbound fraction at 10 uM measured after 5 hrs by equilibrium dialysis method
[12] = Protein binding in mouse plasma assessed as unbound fraction at 10 uM measured after 5 hrs by equilibrium dialysis method
[13] = Drug concentration in C57BL6 mouse plasma at 30 mg/kg, sc measured after 2 hrs by LC-MS/MS analysis; type: ADME, organism-based
[14] = Drug concentration in C57BL6 mouse brain at 30 mg/kg, sc measured after 2 hrs by LC-MS/MS analysis; type: ADME, organism-based; details: read-out: Ct
[15] = Ratio of drug concentration in brain to plasma in C57BL6 mouse at […], sc; type: ADME; details: read-out: BPR
[16] = target: T1, AP2-associated protein kinase 1; experiment: Inhibition of AAK1 (unknown origin)
[17] = Efflux ratio of permeability across basolateral to apical membrane over apical to basolateral membrane in human Caco-2 cells
Rattus norvegicus [18] = experiment: Antinociceptive activity in Sprague-Dawley rat model of chronic constriction injury-induced neuropathic pain assessed as reduction in paw withdrawal latency at 100 mg/kg, po by Von Frey test; type: functional, organism-based
Rattus norvegicus [19] = experiment: Antinociceptive activity in Sprague-Dawley rat model of chronic constriction injury-induced neuropathic pain assessed as reduction in thermal hyperalgesia 100 mg/kg, po by Von Frey test relative to control; type: functional; set-up: scale not given: the % may be the effect or the level left
Rattus norvegicus [20] = experiment: Antinociceptive activity in Sprague-Dawley rat model of chronic constriction injury-induced neuropathic pain assessed as reduction in mechanical hyperalgesia 100 mg/kg, po by Von Frey test relative to control; type: functional; set-up: scale not given: the % may be the effect or the level left
Rattus norvegicus [21] = experiment: Reversal of chronic constriction injury-induced cold allodynia in Sprague-Dawley rat model of neuropathic pain at 100 mg/kg, po measured up to 180 mins relative to control; type: functional; details: time min <=180
Rattus norvegicus [22] = experiment: Reversal of chronic constriction injury-induced mechanical allodynia in Sprague-Dawley rat model of neuropathic pain at 100 mg/kg, sc measured up to 180 mins relative to control; type: functional; details: time min <=180
[23] = Induction of motor coordination impairment in Sprague-Dawley rat at 100 mg/kg, po measured up to 180 mins by rotarod test; type: organism-based; details: in vivo, 3 h
[24] = Toxicity in Sprague-Dawley rat assessed as drowsiness at 100 mg/kg, po; type: organism-based; details: in vivo
[25] = Toxicity in Sprague-Dawley rat assessed as dizziness at 100 mg/kg, po; type: organism-based; details: in vivo
[26] = Toxicity in Sprague-Dawley rat assessed as unsteadiness at 100 mg/kg, po; type: organism-based; details: in vivo

Row | Compound | Papp B→A at 2 h [1] | Papp A→B at 2 h [2] | IC50 [3] | remaining at 10 min, 0.5 µM [4] | remaining at 10 min, 0.5 µM [5] | remaining at 10 min, 0.5 µM [6] | IC50 [7] | Papp at 4 h [8] | Papp at 4 h [9] | fraction unbound at 5 h, 10 µM [10] | fraction unbound at 5 h, 10 µM [11] | fraction unbound at 5 h, 10 µM [12] | concentration at 2 h [13] | concentration at 2 h [14] | Kp [15] | also measured
1 | COc1cc(NC(=O)[C@H](N)CC(C)C)ccc1-c1cnco1 | 151 nm/s | 137 nm/s | 0.012 µM | 89% | 75% | 64% | 0.06 µM | 569 nm/s | 584 nm/s | 0.063 | 0.023 | 0.086 | 7.3 µM | 6.8 µM | 1.17 | 
2 | Cc1nccc2c1c(=O)n(C)c1cc(OC[C@@H](N)CC(C)C)c(C#N)cc21 |  |  |  |  |  |  |  |  |  |  |  |  |  |  |  | IC50 [16]: 0.0007 µM
3 | COc1cc(NC(=O)[C@H](N)CC(C)C)ccc1-c1cn[nH]c1 | 149 nm/s | 40 nm/s | 0.015 µM | 85% | 74% | 34% | 0.19 µM |  |  | 0.18 | 0.1 | 0.2 | 29.9 µM | 5.7 µM | 0.21 | efflux ratio [17]: 3.3
4 | NCC1(CC(=O)O)CCCCC1 [GABAPENTIN] |  |  |  |  |  |  |  |  |  |  |  |  |  |  |  | Activity (Rattus norvegicus [18]): Active; Activity (Rattus norvegicus [19]): 89%; Activity (Rattus norvegicus [20]): 32%; Activity (Rattus norvegicus [21]): 54%; Activity (Rattus norvegicus [22]): 34%; Activity [23]: Toxic; Activity [24]: Toxic; Activity [25]: Toxic; Activity [26]: Toxic
5 | COc1cc(NC(=O)[C@@H]2NCCC[C@@H]2C(C)C)ccc1-c1cnco1 | 119 nm/s | 167 nm/s | 0.01 µM | 60% | 42% | 2% | 0.105 µM | 471 nm/s | 435 nm/s | 0.19 | 0.059 | 0.028 |  |  |  | 
